Results: patent publication US4386103A, “Dichloroamino acid derivatives useful as potent germicidal and fungicidal agents” (Merck & Co., Inc., priority 1981, dated 1983)

Columns and labels:
Type in all cases: cell-based
[1] = system: Staphylococcus epidermidis; test: Contact germicidal screen, Staphylococcus epidermidis ATCC No. 12228
Experimental: The organisms used in the contact germicidal screen are all maintained as stock cultures on nutrient agar […] 4° C. They are transferred and biochemically diagnosed monthly. The five organisms used are: The media used are: […] Overnight cultures of the test organisms are grown in tryptose phosphate broth. After 15-16 hours, the cultures are centrifuged at […] for 15 minutes, and the supernatant replaced with fresh warm (37° C.) media. After two hours of incubation, the absorbance of the culture at 650 nm is determined and diluted with nutrient broth to 1×10^7 colony forming units per ml (using a previous determined standard curve: colony forming units/ml vs. absorbance at 650). The diluted cultures are maintained at 4°-8° C. throughout the screen. The compounds are weighed into sterile 100 ml volumetric flasks, and immediately before screening dissolved in one of the following buffers: 0.1 M NaOAc pH 4.6 or 0.1 M NaH2 PO4 pH 7.0. If solubility poses a problem, 10-30% methanol is used to effect solution. Two denaturing agents are also tested: […] Horse Serum restored with 100 ml distilled water and 10% Trition×100. When used, 2.5 ml of the denaturing agent is mixed with 2.5 ml of double strength test solution thirty minutes before the bacterial suspension is added. The screen is initiated when 0.2 ml of the bacterial suspension is added to 5.0 ml of the test solution contained in a sterile 25 ml glass stoppered flask. At intervals of 0.5, 2.5, 5.0, 10.0 and 15.0 minutes, a loopful of the inoculated test solution is subcultured into 5 ml of sterile nutrient broth and mixed with a vortex, the high dilution serving to stop the action of the compound. All of the subculture tubes are incubated at 37° C. and checked for signs of growth by turbidity at 1, 3, 5 and 7 days. The earliest subculture time at which no growth is present is considered the endpoint and is recorded as the sterilization time. An aliquot of 0.2 ml of the diluted culture is transferred to 5 ml of buffer to simulate 0.2 ml in 5 ml of test solution. (a) Purity: A loopful of the inoculated buffer is streaked onto nutrient agar to check colony morphology and lack of contaminants. (b) Viability: A loopful of the inoculated buffer is subcultured to 5 ml of nutrient broth as in the screen and incubated at 37° C. for 24 hours. (c) Dilution of the Test Solution: A loopful of the test solution is transferred to a 5 ml tube of nutrient broth, and a loopful of the inoculated buffer is transferred to the same tube of broth. […] (d) Purity of Organisms in the Test Solution: After the 15 minute subculture, a loopful of the inoculated test solution is streaked onto nutrient agar to insure that contamination has not occurred during the screen. (e) lack of Bactericidal Activity of Buffers and Other Solvents: Before a buffer or other solvent is used as a diluent, it is screened against the five organisms to insure that the buffer or solvent has no antibacterial activity itself.

[2] = system: Candida albican; test: Contact fungicidal screen, Candida albican; settings: 0.1M NaOAc pH 4.6
Experimental: (§1) The organisms used in the Contact Fungicidal Screen are a dermatophyte, trychophyton mentagrophytes, frequently associated with athlete's foot; a yeast, Candida albican, causative agent of thrush and vaginitis; a phycomycete, Rhizopus oryzae, commonly known as black bread mold; an ascomycete, Aspergillus fumagatis, found in chicken droppings and causing lung infections; and another dermatophyte, Microsporum canis, which causes ringworm. These organisms are maintained as stock cultures at 4° C. on agar slants of the following composition: dextrose 2%, Neopeptone (Difco) 1%, agar 2%. Fluid medium of the same nutrient composition (without agar) was used to test the viability of the organisms after exposure to the fungicide. This medium is also known as Sabouraud's medium.
The Candida albican is grown in Sabouraud's liquid medium at 25°-30° C. for three days. At the end of the incubation period the cell suspension is centrifuged at 200 G and washed with sterile physiological saline (0.85% NaCl). The density of the cell suspension is determined by counting in a hemacytometer. The suspension is stored a 4° C. until it is used, at which time it is diluted with sterile physiological saline to a density of 5×10^6 cells per ml.
(§2) The compounds are weighed into heat sterilized 100 ml volumetric flasks and immediately before screening dissolved in 0.1 M NaOAc pH 4.6 buffer (test solutions).
(§3) The Aspergillus, Candida, Microsporum and Rhizopus species are screened in a slightly different manner. Basically, the procedure for the Contact Germicidal Efficiency Screen is utilized. After the test solutions are made up, 5 ml aliquots are pipetted into heat sterilized 25 ml glass stoppered erlenmeyer flasks. The screen is initiated when 0.5 ml of the 5×10^6 cell (spore) per ml suspension is added to the flask containing 5 ml of the test solution. At intervals of 0.5, 2.5, 5.0, 10.0 and 15.0 minutes, a 4 mm loopful of the inoculated test solution is subcultured into 7 mL of sterile fluid Sabouraud's medium and mixed on a vortex, the high dilution serving to stop the action of the compound. The subculture tubes are incubated at 25°-30° C. for ten days with daily observation for mycelial growth. The earliest subculture time at which no growth is present is considered the endpoint and is recorded as the sterilization time.
(§4) To insure the viability of the culture, a 0.5 ml aliquot of the 5×10^6 cells (spores) per ml suspension is transferred to 5 ml of the pH 4.6 buffer. A loopful of the inoculated buffer is then subcultured to 7 ml of fluid Sabouraud's medium and incubated at 25°-30° C. for ten days. To insure that the dilution of the test solution into the subculture medium does stop the action, a loopful of the test solution and a loopful of the inoculated buffer are transferred into the same subculture tube. This tube is also incubated at 25°-30° C. for ten days.

[3] = system: Rhizopus oryzae; test: Contact fungicidal screen, Rhizopus oryzae; settings: 0.1M NaOAc pH 4.6
Experimental: as §1
[…]. The mycelial mat is removed from the surface of the agar using a sterile spatula. It is transferred to a heat sterilized glass tissue grinder and macerated with 25 ml of sterile physiological saline. The suspension is then filtered through sterile glass wool. The density of the sporangia spore suspension is determined by counting in a hemacytometer. The suspension is stored at 4° C. until it was used, at which time it was diluted with sterile physiological saline to a density of 5×10^6 spores per ml.
as §2, §3, §4

[4] = 10.0+ PPM, 0.1M NaOAc pH 4.6, screened simultaneously with four other compounds
[5] = 300 PPM with 50% Horse Serum, 0.1M NaOAc pH 4.6
[6] = 300 PPM with 50% Triton X100, 0.1M NaOAc pH 4.6
[7] = 308.0 PPM, Triton X100 (10% solution):pH 4.6 buffer 1:1
[8] = 1000 PPM with 50% Horse Serum, 0.1M NaOAc pH 4.6

Row | SMILES | Sterilization Time [1, 4] [min] | Sterilization Time (summary) ([1]; 10 PPM, 0.1M NaOAc pH 4.6) [min] | Sterilization Time (summary) ([1]; 100 PPM, 0.1M NaOAc pH 4.6) [min] | Sterilization Time (summary) [1, 5] [min] | Sterilization Time (summary) [1, 6] [min] | Sterilization Time [1, 7] [min] | Sterilization Time (summary) [1, 8] [min] | Sterilization Time (summary) ([1]; 1000 PPM, 0.1M NaOAc pH 4.6) [min] | Sterilization Time ([2]; 10 PPM) [min] | Sterilization Time ([2]; 100 PPM) [min] | Sterilization Time ([2]; 1000 PPM) [min] | Sterilization Time ([3]; 10 PPM) [min] | Sterilization Time ([3]; 100 PPM) [min] | Sterilization Time ([3]; 1000 PPM) [min] | other results
1 | CC(C)(CCC(=O)O)N(Cl)Cl [(III), 4-Dichloroamino-4-methylvaleric acid] | 10.0 | 10.0 | 0.5 | 10.0 | 2.5 | 2.5 | 2.5 | 0.5 | 15 | 15 | 0.5 | 15 | 15 | 10.0 | Sterilization Time ([1]; 9.6 PPM, 0.1M NaOAc pH 4.6): 5.0 min; Sterilization Time ([1]; 9.7 PPM, 0.1M NaH2PO4 pH 7.0): 15 min; Sterilization Time ([1]; 102.2 PPM, 0.1M NaOAc pH 4.6): 0.5 min; Sterilization Time ([1]; 103.5 PPM, 0.1M NaH2PO4 pH 7.0): 15 min; Sterilization Time ([1]; 308.0 PPM, horse serum:pH 4.6 buffer 1:1): 10.0 min; Sterilization Time ([1]; 1000.0 PPM, horse serum:pH 4.6 buffer 1:1): 2.5 min; Sterilization Time ([1]; 1007.7 PPM, 0.1M NaOAc pH 4.6): 0.5 min; Sterilization Time ([1]; 1012.3 PPM, 0.1M NaH2PO4 pH 7.0): 5.0 min
2 | CC(C)(COC(=O)CCC(=O)O)N(Cl)Cl [(IV), 2-Dichloroamino-2-methylpropylhemisuccinate] | 10.0 | 10.0 | 2.5 | 15 | 2.5 | 2.5 | 2.5 | 0.5 | 15 | 15 | 2.5 | 15 | 15 | 15 | Sterilization Time ([1]; 8.6 PPM, 0.1M NaOAc pH 4.6): 15.0 min; Sterilization Time ([1]; 9.8 PPM, 0.1M NaH2PO4 pH 7.0): 15 min; Sterilization Time ([1]; 106.2 PPM, 0.1M NaOAc pH 4.6): 2.5 min; Sterilization Time ([1]; 149.7 PPM, 0.1M NaH2PO4 pH 7.0): 15 min; Sterilization Time ([1]; 338.7 PPM, horse serum:pH 4.6 buffer 1:1): 15 min; Sterilization Time ([1]; 1008.0 PPM, 0.1M NaOAc pH 4.6): 0.5 min; Sterilization Time ([1]; 1024.0 PPM, horse serum:pH 4.6 buffer 1:1): 2.5 min; Sterilization Time ([1]; 1070.3 PPM, 0.1M NaH2PO4 pH 7.0): 10.0 min
3 | CC(C)(COC(=O)CCCC(=O)O)N(Cl)Cl [(V), 2-dichloramino-2-methylpropyl-hemiglutarate] | 10.0 | 10.0 | 2.5 | 15 | 2.5 |  | 2.5 | 0.5 | 15 | 15 | 0.5 | 15 | 15 | 15 | Sterilization Time ([1]; 10.0 PPM, 0.1M NaH2PO4 pH 7.0): 15 min; Sterilization Time ([1]; 10.0 PPM, 0.1M NaOAc pH 4.6): 10.0 min; Sterilization Time ([1]; 99.1 PPM, 0.1M NaOAc pH 4.6): 2.5 min; Sterilization Time ([1]; 106.7 PPM, 0.1M NaH2PO4 pH 7.0): 15 min; Sterilization Time ([1]; 291.4 PPM, Triton X100 (10% solution):pH 4.6 buffer 1:1): 2.5 min; Sterilization Time ([1]; 291.4 PPM, horse serum:pH 4.6 buffer 1:1): 15 min; Sterilization Time ([1]; 911.8 PPM, 0.1M NaOAc pH 4.6): 0.5 min; Sterilization Time ([1]; 1024.4 PPM, 0.1M NaH2PO4 pH 7.0): 10.0 min; Sterilization Time ([1]; 1042.0 PPM, horse serum:pH 4.6 buffer 1:1): 2.5 min
